Data: patent publication US20070087988A1, “Hematopoietic progenitor kinase 1 for modulation of an immune response” (New York University, priority 2005, published 2007)

How the values were obtained:
HPK1 [1] = assay: HPK1 immune complex in vitro kinase (IVK) assay, endogenous HPK1 from treated Jurkat cells; type: cell-based, human; details: Jurkat cells, 10 pM PGE2
EP2 receptor = molecular target: T1, EP2 receptor (Homo sapiens, UniProt P43116); assay: IVK assay of HA-HPK1 from 293-EP2 transfectants; type: cell-based; details: PGE2 stimulation
T1 construct: expressed in transfected cells; host or cells: HEK 293 (293-EP2), also transiently transfected with HA-HPK1
T1 sequence (P43116 whole entry): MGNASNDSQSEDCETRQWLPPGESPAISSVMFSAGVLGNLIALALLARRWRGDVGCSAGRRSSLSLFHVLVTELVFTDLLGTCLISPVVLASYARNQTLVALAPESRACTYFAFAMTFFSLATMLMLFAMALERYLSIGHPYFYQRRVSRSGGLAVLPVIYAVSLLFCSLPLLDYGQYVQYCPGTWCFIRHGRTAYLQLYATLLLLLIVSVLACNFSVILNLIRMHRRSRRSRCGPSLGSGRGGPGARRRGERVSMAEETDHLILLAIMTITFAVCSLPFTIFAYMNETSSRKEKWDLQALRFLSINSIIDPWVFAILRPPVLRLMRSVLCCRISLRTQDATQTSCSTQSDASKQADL

[2] = test system: wild type HEK 293-EBNA cell line; assay: IVK assay of HA-HPK1 from wild type HEK 293-EBNA cells (no EP2/EP4); type: cell-based, human; details: absence of EP2 and EP4 receptor, PGE2 stimulation
HPK1 [3] = assay: Western blot of immunoprecipitated HPK1 with anti-phosphorylated PKA substrate antibody; type: cell-based, human; details: Jurkat T cells stimulated with PGE2 for 10 min
Experimental: The primary sequence of HPK1 was examined for the preferred PKA phosphorylation site on HPK1. Within the activation loop of HPK1, there exists a perfect PKA phosphorylation site at serine 171 (FIG. 12A). This serine is conserved in all members of the KHS subfamily of STE20 kinases. To determine whether PKA can directly phosphorylate HPK1 upon stimulation by PGE2, experiments were conducted using an anti-phospho PKA substrate antibody that recognizes the arginine-based motif that is present at sites that are phosphorylated by PKA (FIG. 12A).
In these experiments, Jurkat T cells were stimulated with PGE2 for 10 min., lysed, and immunoprecipitated HPK1 was subjected to Western blot analysis using anti-phosphorylated PKA substrate antibody. […] Similarly, the antibody also recognized HPK1 immunoprecipitated from cells that were treated with anti-CD3 (FIG. 12B, lane 2).

T cells [4] = assay: Mixed leukocyte reaction (MLR) T cell proliferation, 3H-thymidine; type: cell-based, mouse; details: MLR with LPS-matured BMDCs, addition of PGE2
Experimental: MLR was performed as described in Sallusto et al. (1994, J. Exp. Med. 179:1009-1118) with minor modifications. Naïve T cells from an allogeneic SJL mouse were purified using CD62L magnetic beads (Milentyi Biotech, Inc., CA). In a 96-well round bottom plate, T cells (1×10^5) were used as responders and incubated with HPK1^−/− and wild type, immature or LPS-matured bone marrow derived dendritic cells (BMDCs) as stimulators. Naïve T cells plus 10 μg/ml ConA were used as a positive control.
In these experiments, T cells were purified and subjected to a mixed leukocyte reaction (MLR) with wild type allogeneic BMDCs in the presence or absence of PGE2. […] To assess this, the same study was repeated under conditions where the magnitude of the MLR response was similar in the two cell types by manipulating the T cell to DC ratio. […] Similar resistance to PGE2 was observed when HPK1^−/− T cells were stimulated by T cell receptor activation with anti-CD3- and anti-CD28-mediated crosslinking in the presence of PGE2 (FIG. 20B).

T cells [5] = assay: T cell proliferation on anti-CD3/anti-CD28 TCR crosslinking, 3H-thymidine; type: cell-based, mouse
Experimental: Naïve T cells (2×10^5) were seeded onto a 96-well plate and incubated with 1 μg/ml anti-CD3 and anti-CD28 or 10 μg/ml ConA for three days in the presence or absence of 100 pM PGE2 and then pulsed with 1 μCi/well ^3H thymidine (MP Biomedicals, Irvine, Calif.) for 18 hours before harvesting.
T cells were negatively selected using the Pan T cell isolation kit (Miltenyi Biotech Inc., Auburn, Calif.). […] 2×10^5 Naïve T cells were seeded on a 96-well plate and incubated with various dilutions of anti-CD3 and 1 μg/ml of anti-CD28 for 72 hours in the presence or absence of 1 nM PGE2 and then pulsed with 1 μCi/well ^3H thymidine (MP Biomedicals, Irvine, Calif.) for 18 hours before harvest.

CD4+ T cells = assay: Intracellular IL-2 staining of CD4+ T cells (FACS); type: cell-based, mouse
Experimental: Purified naïve wild type and HPK1^−/− splenocytes were expanded with 10 μg/ml ConA for three days with or without 10 nM PGE2. 10^6 cells were seeded onto a 96-well plate and cells were either left unstimulated or were stimulated with 1 μg/ml anti-CD3 and anti-CD28 for 6 hours in the presence of GolgiStop™ (BD Pharmingen). Cells were washed with buffer containing 0.1% saponin and 0.1% BSA followed by incubation with anti-IL-2-PE for 30 min. IL-2 levels were read by flow cytometry using FACSCalibur™.
RBC-lysed wild type and HPK1^−/− splenocytes were stimulated with or without 1 nM PGE2 and 2 μg/ml anti-CD3 plus 1 μg/ml anti-CD28 for 48 hours in the presence of GolgiStop™ (BD Pharmingen) for the last five hours of culture. For profiling experiments, RBC-lysed splenocytes were stimulated with anti-CD3 and anti-CD28 for 24 hours, and GolgiStop was added in the last five hours. Cells were then fixed with 2% paraformaldehyde followed by permeabilization with a buffer containing 0.1% saponin and 0.1% BSA and the different conjugated antibodies for 30 min. Cytokine levels were read by flow cytometry using FACSCalibur™ and analyzed using Flowjo software.

T cells [6] = assay: FACS of TCR-stimulated T cells: Foxp3 expression and side-scatter profile; type: cell-based, mouse
Source text: This is due in part to the fact that HPK^−/− T cells produce more IL-2. However, other factors may play a role in the increased percentage of cells expressing CD25. To determine whether regulatory T cell (Treg) transcription factor, Foxp3, was a factor, the expression of […] in HPK^−/− cells was examined in this population. It has been shown that PGE2 induces the expression of Foxp3 in both human and mouse T cells. Because of the inhibitory nature of these T cell subsets, there was a question of whether the conditions of stimulation generated fewer Tregs in the HPK1^−/− culture, as this might explain the enhanced functionality of these T cells.
However, a decrease was detected in the number of cells in the side-scatter profile of wild type T cells exposed to PGE2, indicating a decrease in cell viability. […] Indeed, when these cells were stained for annexin V to determine the amount of apoptosis, PGE2 did increase the number of wild type cells undergoing apoptosis by over 75%, compared to 47% in cells not treated with PGE2.

EP4 receptor = EP4 receptor (Homo sapiens, UniProt P35408); assay: IVK assay of HA-HPK1 from 293-EP4 transfectants; details: PGE2 stimulation
EP4 receptor, sequence (P35408 whole entry): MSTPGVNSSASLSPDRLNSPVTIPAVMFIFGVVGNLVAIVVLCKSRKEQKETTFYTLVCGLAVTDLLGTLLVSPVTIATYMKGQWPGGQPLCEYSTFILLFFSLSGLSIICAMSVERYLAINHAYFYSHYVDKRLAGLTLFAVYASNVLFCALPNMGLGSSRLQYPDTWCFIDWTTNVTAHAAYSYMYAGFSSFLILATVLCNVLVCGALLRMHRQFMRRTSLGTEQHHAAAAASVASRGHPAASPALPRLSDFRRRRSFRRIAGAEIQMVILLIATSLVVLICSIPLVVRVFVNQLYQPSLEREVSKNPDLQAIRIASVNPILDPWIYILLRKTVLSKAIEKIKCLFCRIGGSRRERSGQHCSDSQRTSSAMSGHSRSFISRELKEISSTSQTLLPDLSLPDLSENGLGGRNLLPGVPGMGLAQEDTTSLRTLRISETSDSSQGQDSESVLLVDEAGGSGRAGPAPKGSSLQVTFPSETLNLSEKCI

[7] = Example 4, 100 pM PGE2, three days
[8] = Example 4, 10 nM PGE2, restimulated anti-CD3/anti-CD28

CCCCC[C@H](O)/C=C/[C@H]1[C@H](O)CC(=O)[C@@H]1C/C=C\CCCC(=O)O [PGE2, prostaglandin E2]
HPK1 catalytic activity (IVK) (HPK1 [1]): activate the catalytic activity of HPK1 | HPK1 kinase activity (IVK), 293-EP2 transfectants (EP2 receptor): responded robustly | HPK1 kinase activity (IVK), wild type HEK 293-EBNA [2]: failed to respond | recognition of HPK1 by anti-phosphorylated PKA substrate antibody (HPK1 [3]): recognized the phosphorylated HPK1 | inhibition of proliferation, HPK1−/− T cells, MLR (T cells [4]): ~25% | inhibition of proliferation, wild type T cells, MLR (T cells [4]): ~90% | inhibition of proliferation, HPK1−/− T cells, anti-CD3/anti-CD28 (T cells [5]; [7]): 18% | inhibition of proliferation, wild type T cells, anti-CD3/anti-CD28 (T cells [5]; [7]): ~80% | inhibition of proliferation, HPK1−/− T cells, TCR cross-linking (T cells [5]; Example 8, 1 nM PGE2, 72 hours): ~20% | inhibition of proliferation, wild type T cells, TCR cross-linking (T cells [5]; Example 8, 1 nM PGE2, 72 hours): ~80% | CD4+ HPK1−/− cells still producing IL-2 after PGE2 addition (CD4+ T cells; [8]): over 45% | wild type cells producing IL-2 after PGE2 addition (CD4+ T cells; [8]): less than 10% | CD4+ HPK1−/− T cells still producing IL-2 after co-culture with PGE2 (CD4+ T cells; Example 7, 1 nM PGE2, 48 hours): over 22% | wild type cells producing IL-2 after co-culture with PGE2 (CD4+ T cells; Example 7, 1 nM PGE2, 48 hours): < 5% | Foxp3 expression (T cells [6]; HPK+/+ or HPK−/− cells, TCR crosslinking 3 days, with versus without PGE2): did not induce a higher Foxp3 expression | number of cells in the side-scatter profile (cell viability), wild type T cells (T cells [6]; exposed to PGE2): decrease | pattern of side-scatter, HPK1−/− T cells (T cells [6]; with or without PGE2): no difference | HPK1 kinase activity (IVK), 293-EP4 transfectants (EP4 receptor): responded robustly
